These compounds were tested against T1, MMP-1 (Homo sapiens, UniProt P03956) (assay: In vitro MMP inhibition, Ki determination (fluorogenic substrate II)). Conditions: value not in parenthesis; read-out: MMP-1 Ki.
T1 construct: made in house; host or cells: MMP-1-transfected HT-1080 cells (spent media)
T1 sequence (P03956 100-469): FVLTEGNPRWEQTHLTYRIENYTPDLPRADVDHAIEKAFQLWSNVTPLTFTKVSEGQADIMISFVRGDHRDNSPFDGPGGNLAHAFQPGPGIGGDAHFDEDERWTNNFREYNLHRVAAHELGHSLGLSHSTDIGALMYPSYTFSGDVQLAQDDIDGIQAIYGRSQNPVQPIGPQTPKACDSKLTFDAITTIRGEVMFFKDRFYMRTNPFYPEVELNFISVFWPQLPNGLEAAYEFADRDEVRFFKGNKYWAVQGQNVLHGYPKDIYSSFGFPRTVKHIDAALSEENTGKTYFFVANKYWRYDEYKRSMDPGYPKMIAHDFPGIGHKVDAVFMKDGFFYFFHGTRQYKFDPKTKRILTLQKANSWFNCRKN
Format: biochemical
For `CCCCc1ccc(C2CCN(S(=O)(=O)C3(C(=O)NO)CCN(CCOC)CC3)CC2)s1` [Example 55], the Ki was over 10 µM. Compound `O=C(NO)C1(S(=O)(=O)N2CCN(c3ccc(COCC(F)(F)C(F)F)cc3)CC2)CCOCC1` [Example 71] has a Ki of over 10 µM. With `O=C(NO)C1(S(=O)(=O)N2CCN(c3ccc(COCC(F)(F)F)cc3)CC2)CCOCC1` [Example 72] the Ki was over 10 µM. With `O=C(NO)C1(S(=O)(=O)N2CCN(c3ccc(OC4CCC4)c(F)c3)CC2)CCOCC1` [Example 73] the Ki was over 10 µM. With `O=C(NO)C1(S(=O)(=O)N2CCN(c3ccc(OCc4ccccc4)cn3)CC2)CCOCC1` [Example 74] the Ki was 3.21 µM. For `O=C(NO)C1(S(=O)(=O)N2CCN(c3ccc(-c4ccccc4)cc3)CC2)CCOCC1` [Example 76], the Ki was 1.34 µM. For `O=C(NO)C1(S(=O)(=O)N2CCN(c3ccc(CCC(F)(F)F)cc3)CC2)CCOCC1` [Example 77], the Ki was over 10 µM. With `CCN1CCC(C(=O)NO)(S(=O)(=O)N2CCN(c3ccc(OCCCC(F)(F)F)cc3)CC2)CC1` [Example 78] the Ki was over 10 µM. `CC(C)COc1ccc(N2CCN(S(=O)(=O)C3(C(=O)NO)CCOCC3)CC2)cc1Cl` [Example 79] was tested, and the Ki was over 10 µM. `O=C(NO)C1(S(=O)(=O)N2CCN(c3ccc(OCCCC(F)(F)F)cc3F)CC2)CCOCC1` [Example 81] showed a Ki of over 10 µM. With `O=C(NO)C1(S(=O)(=O)N2CCN(c3cccc(C(F)(F)F)c3)CC2)CCOCC1` [Example 82] the Ki was over 10 µM. `O=C(NO)C1(S(=O)(=O)N2CCN(c3ccc(OCCCC(F)(F)F)cn3)CC2)CCOCC1` [Example 83] showed a Ki of 2.85 µM. Compound `CCCCOc1ccc(N2CCN(S(=O)(=O)C3(C(=O)NO)CCN(C(C)(C)C)CC3)CC2)c(F)c1` [Example 84] has a Ki of over 10 µM. In the case of `CCCCOc1ccc(N2CCN(S(=O)(=O)C3(C(=O)NO)Cc4ccccc4C3)CC2)nc1` [Example 85], the Ki is reported as 4.77 µM. In the case of `COCCN1CCC(C(=O)NO)(S(=O)(=O)N2CCN(c3ccc(OCCCCF)cc3)CC2)CC1` [Example 88], the Ki is reported as over 10 µM. `O=C(NO)C1(S(=O)(=O)N2CCN(c3ccc(OCCCCF)cc3)CC2)CCOCC1` [Example 89] was tested, and the Ki was over 10 µM. For `CCCCOc1ccc(N2CCN(S(=O)(=O)C3(C(=O)NO)CCOCC3)CC2)c(F)c1` [Example 90], the Ki was over 10 µM. Compound `CCCCc1ccc(N2CCN(S(=O)(=O)C3(C(=O)NO)CCOCC3)CC2)c(F)c1` [Example 91] has a Ki of 5.11 µM. `CCCCOc1ccc(N2CCN(S(=O)(=O)C3(C(=O)NO)CCN(c4nc5ccccc5s4)CC3)CC2)cc1` [Example 93] was tested, and the Ki was over 10 µM. Work on `O=C(NO)C1(S(=O)(=O)N2CCN(c3ccc(C(F)(F)F)cn3)CC2)CCOCC1` [Example 94] yielded a Ki of 0.767 µM. `CCCCCc1ccc(N2CCN(S(=O)(=O)C3(C(=O)NO)CCN(c4ncccn4)CC3)CC2)nc1` [Example 95] gave a Ki of over 10 µM. For `CCCCc1ccc(N2CCN(S(=O)(=O)C3(C(=O)NO)CCN(c4cccnc4)CC3)CC2)nc1` [Example 96], the Ki was over 10 µM. `CCCCOc1ccc(N2CCN(S(=O)(=O)C3(C(=O)NO)CCN(C(=O)OCC(C)(C)C)CC3)CC2)cc1` [Example 97] was tested, and the Ki was over 10 µM. `C#CCOC(=O)N1CCC(C(=O)NO)(S(=O)(=O)N2CCN(c3ccc(OCCCC)cc3)CC2)CC1` [Example 98] showed a Ki of over 10 µM. In the case of `CCCCc1ccc(N2CCN(S(=O)(=O)C3(C(=O)NO)CCN(c4ncccn4)CC3)CC2)nc1` [Example 99], the Ki is reported as 8.3 µM. In the case of `CCCCOc1ccc(N2CCN(S(=O)(=O)C3(C(=O)NO)CCOCC3)CC2)nc1` [Example 100], the Ki is reported as 1.6 µM. For `CCCCOc1ccc(N2CCN(S(=O)(=O)C3(C(=O)NO)CCN(c4ccc(Cl)c(Cl)c4)CC3)CC2)cc1` [Example 250], the Ki was over 10 µM.

Same assay, conditions: value outside parentheses; read-out: MMP-1 Ki
`CCCCOc1ccc(N2CCN(S(=O)(=O)C3(C(=O)NO)CCN(c4ccc(Cl)cc4)CC3)CC2)cc1` [Example 251] showed a Ki of over 10 µM. Work on `CCCCOc1ccc(N2CCN(S(=O)(=O)C3(C(=O)NO)CCN(Cc4ccco4)CC3)CC2)cc1` [Example 252] yielded a Ki of over 10 µM. `CCCCOc1ccc(N2CCN(S(=O)(=O)C3(C(=O)NO)CCN(C(N)=O)CC3)CC2)cc1` [Example 253] showed a Ki of over 10 µM. With `CCCCOc1ccc(N2CCN(S(=O)(=O)C3(C(=O)NO)CCN(C(=O)N(C)C)CC3)CC2)cc1` [Example 254] the Ki was over 10 µM. Work on `CCCCOc1ccc(N2CCN(S(=O)(=O)C3(C(=O)NO)CCN(C(=O)c4ccccc4)CC3)CC2)cc1` [Example 255] yielded a Ki of over 10 µM. `CCCCOc1ccc(N2CCN(S(=O)(=O)C3(C(=O)NO)CCN(c4ccc(C(F)(F)F)cn4)CC3)CC2)cc1` [Example 257] gave a Ki of over 10 µM. Work on `O=C(NO)C1(S(=O)(=O)N2CCN(c3ccc(SC(F)(F)F)cc3)CC2)CCS(=O)(=O)CC1` [Example 258] yielded a Ki of over 10 µM. With `CCCCOc1ccc(N2CCN(S(=O)(=O)C3(C(=O)NO)CCN(C(=O)c4ccncc4)CC3)CC2)cc1` [Example 259] the Ki was over 10 µM. With `CCCCOc1ccc(N2CCN(S(=O)(=O)C3(C(=O)NO)CCN(C(=O)C4CC4)CC3)CC2)cc1` [Example 260] the Ki was over 10 µM. For `CCc1ccc(N2CCN(S(=O)(=O)C3(C(=O)NO)CCCC3)CC2)nc1` [Example 261], the Ki was 0.632 µM. Compound `CCc1ccc(N2CCN(S(=O)(=O)C3(C(=O)NO)CCCCC3)CC2)nc1` [Example 263] has a Ki of 0.605 µM. With `CCCCOc1ccc(N2CCN(S(=O)(=O)C3(C(=O)NO)CCN(c4ccccc4)CC3)CC2)cc1` [Example 264] the Ki was over 10 µM. `CCCCOc1ccc(N2CCN(S(=O)(=O)C3(C(=O)NO)CCN(C(=O)CC(F)(F)F)CC3)CC2)cc1` [Example 265] was tested, and the Ki was over 10 µM. Compound `CCCCOc1ccc(N2CCN(S(=O)(=O)C3(C(=O)NO)CCN(C(=O)c4cccnc4)CC3)CC2)cc1` [Example 266] has a Ki of over 10 µM. `CCCCOc1ccc(N2CCN(S(=O)(=O)C3(C(=O)NO)CCN(C(=O)C(C)(C)C)CC3)CC2)cc1` [Example 267] showed a Ki of over 10 µM. `CCCCOc1ccc(N2CCN(S(=O)(=O)C3(C(=O)NO)CCN(C(=O)COC)CC3)CC2)cc1` [Example 268] gave a Ki of 9.32 µM. Work on `CCCCOc1ccc(N2CCN(S(=O)(=O)C3(C(=O)NO)CCN(C=O)CC3)CC2)cc1` [Example 269] yielded a Ki of 6.4 µM. `CCCCc1ccc(N2CCN(S(=O)(=O)C3(C(=O)NO)CCN(CCOC)CC3)CC2)nc1` [Example 270] showed a Ki of over 10 µM. `CCCCOc1ccc(N2CCN(S(=O)(=O)C3(C(=O)NO)CCN(C(=O)CO)CC3)CC2)cc1` [Example 271] gave a Ki of 7.47 µM. Compound `CCCCCc1ccc(N2CCN(S(=O)(=O)C3(C(=O)NO)CCN(C4CC4)CC3)CC2)cc1` [Example 272] has a Ki of over 10 µM. `CCCCOc1ccc(N2CCN(S(=O)(=O)C3(C(=O)NO)CCN(C(=O)C(C)C)CC3)CC2)cc1` [Example 273] showed a Ki of over 10 µM. With `CCCCOc1ccc(N2CCN(S(=O)(=O)C3(C(=O)NO)CCN(C(=O)CC)CC3)CC2)cc1` [Example 274] the Ki was over 10 µM. `CCCCOc1ccc(N2CCN(S(=O)(=O)C3(C(=O)NO)CCN(c4ccc(C)nn4)CC3)CC2)cc1` [Example 275] was tested, and the Ki was over 10 µM. `CCCCOc1ccc(N2CCN(S(=O)(=O)C3(C(=O)NO)CCNCC3)CC2)cc1` [Example 276] showed a Ki of over 10 µM. For `CCCCOc1ccc(N2CCN(S(=O)(=O)C3(C(=O)NO)CCN(C(=O)c4ccccn4)CC3)CC2)cc1` [Example 277], the Ki was over 10 µM. `CCCCOc1ccc(N2CCN(S(=O)(=O)C3(C(=O)NO)CCN(C(=O)CCCC)CC3)CC2)cc1` [Example 278] gave a Ki of over 10 µM. `CC(C)CCOc1ccc(N2CCN(S(=O)(=O)C3(C(=O)NO)CCOCC3)CC2)cc1` [Example 279] was tested, and the Ki was over 10 µM. `CCCCOc1ccc(N2CCN(S(=O)(=O)C3(C(=O)NO)CCN(C)CC3)CC2)cc1` [Example 280] gave a Ki of over 10 µM. In the case of `CCCCOc1ccc(N2CCN(S(=O)(=O)C3(C(=O)NO)CCN(c4ccc(Cl)nn4)CC3)CC2)cc1` [Example 281], the Ki is reported as over 10 µM. Compound `CCCCOc1ccc(N2CCN(S(=O)(=O)C3(C(=O)NO)CCN(C(C)=O)CC3)CC2)cc1` [Example 282] has a Ki of over 10 µM. `CCCCOc1ccc(N2CCN(S(=O)(=O)C3(C(=O)NO)CCN(c4ccc(O)nn4)CC3)CC2)cc1` [Example 283] was tested, and the Ki was 9.79 µM. With `CCCCOc1ccc(N2CCN(S(=O)(=O)C3(C(=O)NO)CCN(CCOC)CC3)CC2)c(F)c1` [Example 284] the Ki was over 10 µM. `CCCCOc1ccc(N2CCN(S(=O)(=O)C3(C(=O)NO)CCN(Cc4ccccc4)CC3)CC2)cc1F` [Example 285] gave a Ki of over 10 µM. With `CCCCOc1ccc(N2CCN(S(=O)(=O)C3(C(=O)NO)CCNCC3)CC2)cc1F` [Example 286] the Ki was over 10 µM. `COCCN1CCC(C(=O)NO)(S(=O)(=O)N2CCN(c3ccc(Oc4ccccc4)cc3)CC2)CC1` [Example 287] was tested, and the Ki was over 10 µM. In the case of `CCCCCc1ccc(C2CCN(S(=O)(=O)C3(C(=O)NO)CCOCC3)CC2)nc1` [Example 305], the Ki is reported as 6.7 µM. Work on `O=C(NO)C1(S(=O)(=O)N2CCC(c3ccc(Br)cn3)CC2)CCOCC1` [Example 306] yielded a Ki of 0.602 µM. `CCCCc1ccc(C2CCN(S(=O)(=O)C3(C(=O)NO)CCOCC3)CC2)nc1` [Example 307] gave a Ki of 6.81 µM. `O=C(NO)C1(S(=O)(=O)N2CCC(c3ccc(-c4ccc(F)cc4F)cn3)CC2)CCOCC1` [Example 308] showed a Ki of 6.78 µM. Work on `COCCN1CCC(C(=O)NO)(S(=O)(=O)N2CCC(c3ccc(CCC(F)(F)F)cc3)CC2)CC1` [Example 309] yielded a Ki of over 10 µM. With `COCCN1CCC(C(=O)NO)(S(=O)(=O)N2CCC(c3ccc(CCCC(F)(F)F)cc3)CC2)CC1` [Example 310] the Ki was over 10 µM. With `COCCN1CCC(C(=O)NO)(S(=O)(=O)N2CCC(c3ncc(CC(C)C)s3)CC2)CC1` [Example 311] the Ki was over 10 µM. For `COCCN1CCC(C(=O)NO)(S(=O)(=O)N2CCC(c3ccc(CCC(F)(F)C(F)(F)F)cc3)CC2)CC1` [Example 312], the Ki was over 10 µM.
